Reference: patent US5633277A, “Sulfonamide aminomethylene derivatives as immunosuppressants” (Miles Inc., priority 1995, dated 1997)

Tests used:
FKBP = FKBP (Homo sapiens, UniProt P62942); assay: PPIase Inhibition Assay; type: biochemical
Procedure: 1) Inhibition of PPlase Activity
This assay follows in principle the procedure described in Kofron et al., 1991, Biochemistry 30:6127. The three main reagents used are PPIase, a substrate for PPIase, and a selected inhibitor compound of the present invention. The basic principle behind this assay is the conversion of the cis isomer of the substrate to the trans form, which conversion is catalyzed by PPIase. Essentially, inhibition of this PPIase activity is measured for the selected compounds. A peptide chymotrypsin substrate containing a proline in the P2 position is only cleaved by chymotrypsin when the Phe-Pro bond is in the trans isomeric configuration. In the presence of excess chymotrypsin, all of the trans peptide isomers are cleaved within approximately five seconds, leaving only cis forms.
The cis peptide will spontaneously convert to the trans isomer at a slow rate. The cis to trans conversion is catalyzed by isomerases at a much faster rate than this spontaneous conversion. Proteins with PPIase activity are examples of such isomerases. After isomerization, the peptide is cleaved by chymotrypsin releasing p-nitroaniline which can be monitored at 390 nm. The rate of release is then calculated using a first order rate plus offset equation utilizing the ENZFITTER program (Leatherbarrow, BIOSOFT, Cambridge, United Kingdom).
In a plastic cuvette are added 950 ul of ice cold assay buffer (25 mM HEPES, pH 7.8, 100 mM NaCl), 10 uL of FKBP (2.5 uM in 10 mM Tris-Cl pH 7.5,100 mM NACl, 1 mM dithiothreitol), 25 ul of chymotrypsin (50 mg/ml in 1 mM HCl) and 10 ul of the test compound at various concentrations in dimethyl sulphoxide. The reaction is initiated by addition of 5 ul of substrate (Succinyl-Ala-Phe-Pro-Phe-para-nitroanilide, 5 mg/ml in 235 mM LiCl in trifluoroethanol).
The absorbance at 390 nm versus time is monitored for 90 sec using a Beckman DU70 spectrophotometer. The absorbance versus time data files are transferred to an IBM XT computer and the rate constants determined using the commercial Enzfitter program. For each set of data, the uncatalyzed rate of conversion is measured and the uninhibited enzymatic rate determined. The data are expressed as % Inhibition and are calculated as follows: [formula] where kobs is the rate in the presence of a selected test compound, kuncat is the rate in the absence of enzyme, and kuninh is the rate in the presence of enzyme and absence of inhibitor. Data are plotted as percent inhibition versus concentration of inhibitor. The values of the concentration of inhibitor required for 50% inhibition of enzyme activity (IC50) were determined by nonlinear least squares regression analysis.

human T-cells = assay: Suppression of Human T-Cell Proliferation Assay (mitogen-induced, [3H]-thymidine incorporation); type: cell-based; conditions: Homo sapiens, T-cell; 72 hours incubation; mitogen stimulated; read-out: IC50 (inhibition of [3H]-thymidine incorporation of T-cells by 50%)
Excerpt: 2) Human T Lymphocyte Inhibition
Inhibition of mitogen-induced T-cell proliferation can be used to profile immunosuppressive activity of test compounds. In the description of the assay which follows, mitogen-induced T-cell proliferation was used to test the inhibitory potencies of select compounds of the present invention.
In an assay similar to that described by Bradley in Mishell et al. (Eds.), 1980, Selected Methods in Cellular Immunology, pp 156-161, W. H. Freeman & Co., San Fransisco, Calif., T-cells were stimulated by incubation with phytohemagglutinin (PPIA) which binds to cell surface molecules, including the T-cell receptor. This stimulation results in proliferation which can be measured by incorporation of [^3 H]-thymidine into cellular DNA.
The immunosuppressive properties of the compounds of the present invention can be determined by adding various concentrations of the compounds to these cultures and measuring the effect on T-cell proliferation.
Suppression of Human T-Cell Proliferation Assay
Fresh LeukoPaks were obtained from the New York Blood Center, New York, N.Y. The cells, including erythrocytes and leukocytes, were diluted with Hank's Balanced Salt Solution (HBSS) (GIBCO, Grand Island, N.Y.) and layered over Lymphoprep (Nycomed Pharma AS, Oslo, Norway) in sterile 50 ml conical centrifuge tubes. Lymphocytes were isolated at the Hank's/Nycomed interface after centrifugation at 2000×g, 4° C. for 15 min. The lymphocytes were washed with Minimal Essential Medium (GIBCO) containing 2% fetal bovine serum (FBS) (Sigma Chemical Co., St. Louis, Mo.), 1% HEPES buffer (GIBCO) and 1% Penicillin-Stretomycin solution (GIBCO).
T-cells were further purified essentially by sheep erythrocyte (SRBC) rosetting as described by Morimoto et al., 1983, J. Immunol. 130:157. The isolated lymphocytes were adjusted to 2×10^7 cells/ml and 5 ml aliquots of the cell suspension were incubated for 10 minutes at room temperature with 5 ml of a 5% SRBC (Cappel, Organon Technika Corp., West Chester, Pa.) suspension. The cells were gently pelleted by centrifugation at 300 rpm for 10 minutes, followed by a 1 hour incubation at room temperature to allow rosette formation. The cells were gently resuspended,layered over Lymphoprep and centrifuged for 30 minutes at 500×g. The pellet, containing rosetted T-cells and SRBC was treated with ice cold buffered ammonium chloride (GIBCO) to lyse the erythrocytes. T-cells were washed twice with HBSS.
Purified T-cells were resuspended at 2×10^6 cells/ml in complete culture medium composed of RPMI-1640 (Whittaker Bioproducts, Walkerville, Md.) with 10% FBS (Sigma), 2 mM L-glutamine (GIBCO), 1% Penicillin-Streptomycin (GIBCO) and 15 mM HEPES (GIBCO). In 96-well plates (Becton Dickinson, Lincoln Park, N.J.), 0.1 ml aliquots of T-cell suspension were mixed with 0.05 ml of 40 μg/ml PPIA-M (Sigma). The compounds of this invention were dissolved in dimethylsulfoxide at 10 mM and various dilutions in complete medium were added in duplicate wells (0.05 ml/well). The plates were incubated at 37° C. in a humidified atmosphere of 5% carbon dioxide and 95% air for 72 hours.
Proliferation was assessed by measurement of [3H]-thymidine incorporation. During the last 6 hours of incubation, the cells were pulse labelled with 1 μCi/well of [3H]-thymidine (New England Nuclear, Boston, Mass.). The cells were harvested onto glass fiber paper using a plate harvester and the radioactivity incorporated into cellular DNA corresponding to individual wells was measured by standard liquid scintillation counting methods. The mean counts per minute (CPM) of replicate wells was calculated and linear regression analysis of mean CPM versus compound concentration was used to determine the concentration of compound which would inhibit [^3 H]-thymidine incorporation of T-cells by 50% (IC50).

dogs = conditions: Collier et al., 1988; cited from earlier work
IL-2 production = conditions: cited from earlier work
baboons = conditions: Collier et al., 1988; cited from earlier work
transplant patients = conditions: cited from earlier work
NF-AT = conditions: Schreiber and Crabtree, 1992; cited from earlier work
[1] = tested on: FK506 binding protein (FKBP); conditions: cited from earlier work

Chain of FKBP (P62942 whole entry): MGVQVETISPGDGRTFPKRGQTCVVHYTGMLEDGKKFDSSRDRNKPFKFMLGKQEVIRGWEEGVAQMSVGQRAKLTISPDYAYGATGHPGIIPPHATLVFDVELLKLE

SMILES: CC(C)C[C@@H](CN1CCC[C@H]1C(=O)NCCCCc1ccccc1)NS(=O)(=O)CS(C)(=O)=O [Example 9, 1-[2-(S)-(Methylsulfonylmethanesulfonylamino)-4-methylpentyl]-L-proline 4-Phenylbutylamide]
- IC50 (FKBP): > 5 µM
- IC50 (human T-cells): 4 µM

SMILES: C=CC[C@@H]1/C=C(\C)C[C@H](C)C[C@H](OC)[C@H]2O[C@@](O)(C(=O)C(=O)N3CCCC[C@H]3C(=O)O[C@H](/C(C)=C/[C@@H]3CC[C@@H](O)[C@H](OC)C3)[C@H](C)[C@@H](O)CC1=O)[C@H](C)C[C@@H]2OC [FK506]
- vasculitis (dogs): severe vasculitis
- IL-2 production (in words) (IL-2 production): inhibit IL-2 production
- vasculitis (baboons): severe vasculitis
- effectiveness in transplant patients who do not respond to CsA (transplant patients; Tucci et al., 1989): effective in some transplant patients who do not respond to CsA
- absolute rate of clinical rejection vs current standard therapies (transplant patients; post-organ transplantation patients, Holechek, 1991): only slightly lower than with current standard therapies
- NF-AT activity (in words) (NF-AT): inhibited
- binding to FKBP (in words) [1]: bound
